Measurements: patent publication US11576981B2, “Acyl hydrazone linkers, methods and uses thereof” (Ontario Institute for Cancer Research (OICR), priority 2017, dated 2023)

What was measured:
[1] = Half-life of model acyl hydrazones in a simulated lysosomal environment (pH 4.5); assay type: physicochemical; conditions: read-out: Acidic (pH 4.5) Half life
Text: Towards the goal developing enhanced control of ADC linker stability, several model cyclic acyl hydrazones whose lability is modulated either by steric or stereoelectronic effects have been prepared. Exemplary acyl hydrazones containing a substituted phenyl group adjacent to the imine carbon have been synthesized. Starting with the acyl hydrazone structure (D) present in Mylotarg, the adjacent steric and electronic environments in model linker compounds were varied and their half-life tested in a simulated lysosomal environment (pH 4.5), as shown in Table 1. […] On the other hand, incorporation of a methoxy group in the same position (as in G) rendered the cyclic hydrazone very labile with a half-life of only 2 min.

[2] = test system: glioblastoma EGFR^+ U87 cell lines (U87MG engineered to overexpress wt EGFR); test: Cell proliferation assay (SRB), EGFR^+ U87 cells; assay type: cell-based; conditions: Homo sapiens, U-87 MG, 72 h
Description: (§1) The parental U87MG glioblastoma human tumor cell line (ATCC) and the corresponding cell line engineered to overexpress wt EGFR (EGFR^+ U87) (˜2M receptors per cell) were grown in DMEM medium containing 10% fetal bovine serum and 2 mM L-glutamine. Cells were inoculated into 96 well microtiter plates in 100 μL at a plating density of 4000 cells/well After cell inoculation, the microtiter plates were incubated at 37° C., 5% CO2, 95% air and 100% relative humidity. After 24 h incubation, experimental drugs were diluted to 10× the desired final maximum test concentration with complete medium and additional 10-fold or ½ log serial dilutions were made to provide a total of 6 drug concentrations plus control. Aliquots of 10 μl of these different drug dilutions were added to the appropriate microtiter wells already containing 100 μl of medium, resulting in the required final drug concentrations.
(§2) Following drug addition, the plates were incubated for an additional 72 h at 37° C., 5% CO2, 95% air, and 100% relative humidity. […] Bound stain was subsequently solubilized with 10 mM trizma base, and the absorbance was read on an automated plate reader at a wavelength of 515 nm. The growth was calculated at each of the drug concentrations levels relative to untreated cells (media only control).
(§3) Percentage growth inhibition was calculated as: [(Ti)/(C)]×100 […]

[3] = test system: parental U87MG glioblastoma human tumor cell line; test: Cell proliferation assay (SRB), U87 parental cells; assay type: cell-based; conditions: U-87 MG, 72 h
Description: as §1, §2, §3

[4] = Stability of acyl hydrazones on incubation in human plasma; assay type: in vitro ADME; conditions: 6 days incubation in human plasma; remaining parent acyl hydrazone
Description: In addition, for an ADC to have a better therapeutic window, ideally it should be stable in plasma and having the payload released only upon entry to the target cells. Thus targeted cytotoxicity would be mostly confined to the diseased cells of interest. Starting with the acyl hydrazone structure (D) present in Mylotarg, the adjacent steric and electronic environments were varied in model linker compounds and their stability was tested in plasma.

[5] = test system: SKOV3 ovarian cancer cell line; test: Cytotoxicity against SKOV3 (CellTiter-Glo ATP viability); assay type: cell-based; conditions: ATP content
Description: SKOV3 ovarian cells are incubated with the effectors for a period corresponding to 2 to 3 times their estimated doubling time and the amount of viable cells is determine by measuring ATP content in the wells. […] All ADCs are diluted in DPBS to 6× the highest concentration tested, followed by 10 3-fold serial dilutions in DPBS for a total of 11 concentration points. Each point is added to triplicate wells. DPBS is added in wells to measure the maximum growth. Cells are diluted at their appropriate seeding density (ranging from 150 to 1000 cells per well) in complete media supplemented with glutamine 2 mM, serum and antibiotic cocktail. They are distributed in white, opaque bottom, tissue-culture treated 384 well plates and incubated for 24 hrs at 37° C.+5% CO2. […] Total ATP is measured using CellTiter-Glo reagent from Promega as recommended by the supplier. […] Signal output is measured on a luminescence plate reader (envision, Perkin Elmer) set at an integration time of 0.1 sec. […]
Each concentration point (S) is normalized to the negative control wells (NC) and expressed as % survival (NC−S/NC×100). Potency (IC50) and efficacy are calculated from a non-linear curve fit of the points versus log of the concentrations without constrain on the slope. Refined data are analysed using Prism software.

Row | half-life [1] | Molecule | also measured
1 | 31 min | CC(C)(S)CC(=O)N/N=C1\CCCc2cc(OCCCC(=O)O)ccc21 [Compound Ie, 4-((5-(2-(3-Mercapto-3-methylbutanoyl)hydrazineylidene)-5,6,7,8-tetrahydronaphthalen-2-yl)oxy)butanoic acid] | –
2 | – | COc1cc2cc(c1Cl)N(C)C(=O)C[C@H](OC(=O)[C@H](C)N(C)C(=O)CCS)[C@]1(C)O[C@H]1[C@H](C)[C@@H]1C[C@@](O)(NC(=O)O1)[C@H](OC)/C=C/C=C(\C)C2 [DM1] | IC50 [2]: 10.3 nM; IC50 [3]: 12.3 nM
3 | 234 min | CC(C)(S)CC(=O)NN=C1CCCc2cc(OCCCC(=O)O)cc(O)c21 [Compound Ib, 4-((4-Hydroxy-5-(2-(3-mercapto-3-methylbutanoyl)hydrazono)-5,6,7,8-tetrahydronaphthalen-2-yl)oxy)butanoic acid] | –
4 | 15 min | COc1ccc(/C(C)=N/NC(C)=O)cc1 [D] | % remaining after 6 days [4]: 37%
5 | 88 min | CC(=O)N/N=C1\CCCc2ccc(F)cc21 [K] | –
6 | 2 min | COc1cc(O)cc2c1/C(=N/NC(C)=O)CCC2 [G] | –
7 | 15 min | C/C(=N\NC(=O)CC(C)(C)S)c1ccc(OCCCC(=O)O)cc1 [Compound Ia, 4-(4-(1-(2-(3-Mercaptomethylbutanoyl) hydrazineylidene)ethyl)phenoxy) butanoic acid] | –
8 | – | Synagis-SMCC-DM1: negative control ADC | IC50 [5]: 9.64 nM
9 | 185 min | CC(=O)N/N=C1\CCc2cccc(O)c21 [L] | % remaining after 6 days [4]: 50%
